In patent publication US4317824A, “Derivatives of quinoxaline-1,4-dioxides” (Abic, Ltd., priority 1976, dated 1982):
≈ marks a conversion by molar mass, not a printed value.

Key:
Staph. Aur. = assay: antimicrobial activity, minimal inhibitory concentration, Staph. Aur.; type: cell-based
Experimental: (§1) The antimicrobial activity of some compounds according to the present invention was measured and the results are shown in the following Tables. The activity is indicated as the minimal inhibitory concentration in μg/ml.

B. Subtilis = assay: antimicrobial activity, minimal inhibitory concentration, B. Subtilis; type: cell-based; conditions: Bacillus subtilis
Experimental: as §1

Shig. Flex. = assay: antimicrobial activity, minimal inhibitory concentration, Shig. Flex.; type: cell-based
Experimental: as §1

Salm. Typh. = assay: antimicrobial activity, minimal inhibitory concentration, Salm. Typh.; type: cell-based; conditions: read-out: minimal inhibitory concentration
Experimental: as §1

E. Coli [1] = assay: antimicrobial activity, minimal inhibitory concentration, E. Coli; type: cell-based; conditions: Escherichia coli
Experimental: as §1

B. Cereus = assay: antimicrobial activity, minimal inhibitory concentration, B. Cereus; type: cell-based; conditions: Bacillus cereus
Experimental: as §1

Trichophyt. Rubrum = assay: antimicrobial activity, minimal inhibitory concentration, Trichophyt. Rubrum; type: cell-based
Experimental: as §1

Mycoplasma gallisept = assay: antimicrobial activity, minimal inhibitory concentration, Mycoplasma gallisept; type: cell-based
Experimental: as §1

Proteus = assay: antimicrobial activity, minimal inhibitory concentration, Proteus; type: cell-based
Experimental: as §1

E. Coli [2] = assay: Systemic E. Coli infection in mice; type: in vivo; conditions: systemic E. Coli infection, 2,5 mg × 2 per day
Experimental: (§2) Some compounds of general formula Id were tested also in vivo.

St. aur = assay: Systemic St. aur infection in mice; type: in vivo; conditions: systemic St. aur infection, 2,5 mg × 2 per day
Experimental: as §2

| SMILES | MIC (Staph. Aur.) | MIC (B. Subtilis) | MIC (Shig. Flex.) | MIC (Salm. Typh.) | MIC (E. Coli [1]) | MIC (B. Cereus) | MIC (Trichophyt. Rubrum) | MIC (Mycoplasma gallisept) | MIC (Proteus) | Protection (E. Coli [2]) | Protection (St. aur) |
| --- | --- | --- | --- | --- | --- | --- | --- | --- | --- | --- | --- |
| CCOC(=NO)c1c[n+]([O-])c2ccccc2[n+]1[O-] [Example 17 (ethoxy), 2-(α-ethoxy)-carboxaldoxime-quinoxaline-1,4 dioxide] | 10 µg/mL (≈ 40.1 µM) | 11 to 100 µg/mL (≈ 44.1 to 401 µM) | 11 to 100 µg/mL (≈ 44.1 to 401 µM) | 11 to 100 µg/mL (≈ 44.1 to 401 µM) | 11 to 100 µg/mL (≈ 44.1 to 401 µM) |  |  |  |  |  |  |
| [O-][n+]1cc(C(Cl)=NO)[n+]([O-])c2cc(Cl)ccc21 [Example 8, 2-(α-chloro)-carboxaldoxime-7-chloro-quinoxaline-1,4-dioxide] | 25 µg/mL (≈ 91.2 µM) | 11 to 100 µg/mL (≈ 40.1 to 365 µM) | 11 to 100 µg/mL (≈ 40.1 to 365 µM) |  | 25 µg/mL (≈ 91.2 µM) | 10 µg/mL (≈ 36.5 µM) | 11 to 100 µg/mL (≈ 40.1 to 365 µM) | 10 to 25 µg/mL (≈ 36.5 to 91.2 µM) |  |  |  |
| O=C(ON=C(Cl)c1c[n+]([O-])c2ccccc2[n+]1[O-])c1ccc([N+](=O)[O-])cc1 [Example 14] |  |  | 11 to 100 µg/mL (≈ 28.3 to 257 µM) | 11 to 100 µg/mL (≈ 28.3 to 257 µM) |  |  | 11 to 100 µg/mL (≈ 28.3 to 257 µM) | 50 µg/mL (≈ 129 µM) |  |  |  |
| COC(=NO)c1c[n+]([O-])c2ccccc2[n+]1[O-] [Example 17 (methoxy), 2-(α-methoxy)-carboxaldoxime-quinoxaline-1,4-dioxide] | 10 µg/mL (≈ 42.5 µM) | 11 to 100 µg/mL (≈ 46.8 to 425 µM) | 11 to 100 µg/mL (≈ 46.8 to 425 µM) |  | 10 µg/mL (≈ 42.5 µM) | 10 µg/mL (≈ 42.5 µM) |  | 2 to 10 µg/mL (≈ 8.5 to 42.5 µM) |  |  |  |
| O=C(CCl)ON=C(Cl)c1c[n+]([O-])c2ccccc2[n+]1[O-] [Example 13, 2-[α-chloro-(0-chloroacetylcarboxaldoxime)]-quinoxaline-1,4-dioxide] | 20 µg/mL (≈ 63.3 µM) | 11 to 100 µg/mL (≈ 34.8 to 316 µM) | 11 to 100 µg/mL (≈ 34.8 to 316 µM) | 50 µg/mL (≈ 158 µM) | 25 µg/mL (≈ 79.1 µM) | 25 µg/mL (≈ 79.1 µM) | 11 to 100 µg/mL (≈ 34.8 to 316 µM) | 25 µg/mL (≈ 79.1 µM) |  |  |  |
| [O-][n+]1cc(C(Cl)=NO)[n+]([O-])c2ccccc21 [Example 6, 2(α-chloro)-carboxaldoxime-quinoxaline-1,4-dioxide] | 25 µg/mL (≈ 104 µM) | 11 to 100 µg/mL (≈ 45.9 to 417 µM) | 11 to 100 µg/mL (≈ 45.9 to 417 µM) |  | 25 µg/mL (≈ 104 µM) | 25 µg/mL (≈ 104 µM) | 11 to 100 µg/mL (≈ 45.9 to 417 µM) | 25 to 50 µg/mL (≈ 104 to 209 µM) |  |  |  |
| CCNC(=NO)c1c[n+]([O-])c2ccccc2[n+]1[O-] [Example 18, 2-(N-ethylamino)-carboxamidoxime-quinoxaline-1,4-dioxide] | 10 µg/mL (≈ 40.3 µM) |  |  | 25 µg/mL (≈ 101 µM) | 25 µg/mL (≈ 101 µM) | 25 µg/mL (≈ 101 µM) |  | 10 to 25 µg/mL (≈ 40.3 to 101 µM) | 11 to 100 µg/mL (≈ 44.3 to 403 µM) | + (indicates protection >80%) | +/- (indicates protection 50-80%) |
| [O-][n+]1cc(C(=NO)NN2CCOCC2)[n+]([O-])c2ccccc21 [drawing 5] | 11 to 100 µg/mL (≈ 36 to 328 µM) | 11 to 100 µg/mL (≈ 36 to 328 µM) |  |  |  |  | 1 µg/mL (≈ 3.28 µM) |  |  |  |  |
| Cc1cc2c(cc1C)[n+]([O-])c(C(Cl)=NO)c[n+]2[O-] [Example 9, 2-(α-chloro)-carboxaldoxime-6.7-dimethyl-quinoxaline-1,4-dioxide] | 11 to 100 µg/mL (≈ 41.1 to 374 µM) | > 100 µg/mL | > 100 µg/mL | > 100 µg/mL | > 100 µg/mL | 11 to 100 µg/mL (≈ 41.1 to 374 µM) | 11 to 100 µg/mL (≈ 41.1 to 374 µM) |  |  |  |  |
| CC(=O)NNC(=NO)c1c[n+]([O-])c2ccccc2[n+]1[O-] [Example 24, 2-N-(acetyl-hydrazino)-carboxaldoxime-quinoxaline-1,4-dioxide] | 10 µg/mL (≈ 36.1 µM) |  |  | 11 to 100 µg/mL (≈ 39.7 to 361 µM) | 11 to 100 µg/mL (≈ 39.7 to 361 µM) | 11 to 100 µg/mL (≈ 39.7 to 361 µM) | 11 to 100 µg/mL (≈ 39.7 to 361 µM) |  | 11 to 100 µg/mL (≈ 39.7 to 361 µM) | + (indicates protection >80%) | + (indicates protection >80%) |
| CCC(=O)ON=C(Cl)c1c[n+]([O-])c2ccccc2[n+]1[O-] [Y = H, R = CH2CH3] | 10 µg/mL (≈ 33.8 µM) | 11 to 100 µg/mL (≈ 37.2 to 338 µM) | 11 to 100 µg/mL (≈ 37.2 to 338 µM) | 25 µg/mL (≈ 84.6 µM) | 25 µg/mL (≈ 84.6 µM) | 25 µg/mL (≈ 84.6 µM) |  |  |  |  |  |
| CN(C)NC(=NO)c1c[n+]([O-])c2ccccc2[n+]1[O-] [Example 21e, 2-(α-N-dimethyl-hydrazino)-carboxaldoxime-quinoxaline-1,4-dioxide] | 10 to 25 µg/mL (≈ 38 to 95 µM) |  |  | 100 µg/mL (≈ 380 µM) | 2 to 10 µg/mL (≈ 7.6 to 38 µM) | 10 µg/mL (≈ 38 µM) |  | 25 µg/mL (≈ 95 µM) |  |  |  |
